In patent publication US20180369264A1, “COMBINATION OF A CARDIAC STEROID AND AN AKT INHIBITOR FOR THE TREATMENT OF CARDIOVASCULAR DISEASES AND DISORDERS” (YISSUM RESEARCH DEVELOPMENT COMPANY OF THE HEBREW …, priority 2015, published 2018):
“And” between values parts separate entries of the source, which are not always exact repeats. Identical values can stand only once. Like-named read-outs stand apart in the source and are kept apart here.

Tests used:
[1] = tested on: Akt; parameters: scale not given here; settings: class symbols, key not given; cited from earlier work
[2] = tested on: ERK; assay: ERK phosphorylation in adult zebrafish heart (Western blot); format: in vivo; settings: adult zebrafish heart, control experiments
Experimental: Adult zebrafish (˜12-months-old) were transferred to swimming medium containing 1 μM of CS drugs, as specified in the following examples. At various time points (5-30 min), as indicated in the following examples, the zebrafish were transferred to perfusion buffer and the hearts were immediately removed and transferred to RIPA lysis buffer (Sigma-Aldrich), and protease inhibitor cocktail (P8340, Sigma-Aldrich), at a 1:100 dilution). The tissue was homogenized in an ultrasonic homogenizer (Microson, NY, USA) and aliquots of the homogenate were stored at −70° C. until used.
Protein dilution and separation on SDS-PAGE electrophoresis, their transfer to a polyvinylidene fluoride membrane were carried out. […] The membranes were washed with TBS containing 0.1% Tween and exposed to horseradish peroxidase-conjugated secondary goat anti-rabbit IgG antibody (1:50,000). The membranes were stripped prior to their exposure to a different antibody. Detection was carried out with the aid of a Luminata™ Crescendo Western HRP Substrates, according to the manufacturer's instructions.

[3] = tested on: primary adult zebrafish cardiomyocytes; assay: Primary adult zebrafish cardiomyocyte contractility; format: cell-based
Experimental: Adult (4 to 12-month-old) ventricular myocytes were obtained by enzymatic dissociation (with collagenase II and IV, at 5 mg/ml, each). The zebrafish were stunned by a blow to the head and the brain was pithed. The heart was quickly removed and placed in a small Petri dish containing 10 ml isolation solution: 100 mM NaCl, 10 mM KCl, 1.2 mM KH2PO4, 4 mM MgSO4, 50 mM taurine, 20 mM glucose, and 10 mM Hepes, pH 6.9. The ventricle was cut free from the bulbus and atrium under a binocular. Ventricles from 3 fish were incubated for 45 minutes at 32° C. in a solution containing perfusion buffer (150 mM NaCl, 5.4 mM KCl, 1.5 mM MgSO4, 0.4 mM NaH2PO4, 2 mM CaCl2, 10 mM glucose, and 10 mM Hepes, pH 7.7). Collagenases II and IV (Gibco, NY, USA, 5 mg/ml each) and additional CaCl2 (2.012 mM final concentration) were added. Following Eppendorf centrifugation (1 minute, 250×g at room temperature) the precipitated cells were suspended in 1 ml perfusion buffer for 30 minutes at room temperature before use.
Cells were transferred to a chamber with a quartz base and examined using an inverted epifluorescence microscope (Nikon Diaphot 200, Japan). The myocytes were field-stimulated (0.5 Hz, 70 V, square waves) and contractions were measured using a video motion edge detector (Crescent Electronics, Sandy, Utah, USA) at the rate of 5 Hz. Cardiomyocyte performance was calculated as the percentage of resting cell length. The slopes of contraction and relaxation (+dL/dt and −dL/dt) were calculated from the linear portions of the changes in contractility. 9 cells per each group were measured. Each of the experiments was repeated at least 3 times with identical results.

[4] = tested on: wild-type zebrafish larvae heart; format: in vivo, zebrafish (Danio rerio); settings: for effect on force of contraction / effect on heart rate: 1 nM
Experimental: Experiments were performed on wild-type (WT, AB strain) zebrafish (Danio rerio). The fish were maintained in accordance with the principles established by the NIH. […] The fish were kept in swimming medium (E3 medium) in small aquaria at 28° C. and maintained under a 14h: 10h light:dark cycle. The zebrafish larvae were maintained in the presence of 0.1% methylene blue (M9140, Sigma-Aldrich Inc, Israel) at 28° C. All measurements were taken in embryos at 72 hours post fertilization (hpf).
Ouabain, bufalin, digoxin, acetylcholine, carbachol, […] (pp2) and U0126 (1,4-diamino-2,3-dicyano-1,4-bis(2-aminophenylthio)butadiene) were purchased from Sigma-Aldrich Inc., Israel. The compounds were dissolved in egg water (0.3 g Instant Ocean Salt in distilled water) to a final selected concentration, as specified in the following examples. […]
(§1) Filming process Zebrafish larvae heart imaging was performed using an Olympus CKX41 (Japan) […] microscope with ×10 or ×20 magnification, and integrated incandescent illumination. A FastCam imi-tech (Korea) high speed digital camera with 640×480 pixel gray scale image sensor was mounted on the microscope, using ImCam software (IMI Technology, Co. Ltd) for high speed video recording. The larvae were anesthetized by placing them in filming/anesthetizing medium. Each larva in 0.5 ml filming/anesthetizing medium was transferred to a 96-well tissue culture plate at room temperature and sequential images of the heart were obtained, with the larvae positioned on their side, at 80 fps during 10 seconds with a shutter speed of 0.016 seconds.
Physiological parameters of cardiovascular performance, as indicated hereinbelow, were evaluated in the zebrafish larvae. Image analysis applications ImageJ (NIH, USA) were used, allowing the delineation of the endomyocardial border at the end of systole or end of diastole to define the ventricular area. Sequential still frames were analyzed to capture ventricular end-systole and end-diastole images. End Systolic Area (ESA, FIG. 1B) and End Diastolic Area (EDA, FIG. 1C) were used to calculate Fractional Area Change (FAC), according to the equation: FAC=(EDA-ESA)/EDA*100. The Ejection Fraction (EF) was determined by an independent estimate of ventricular volume. This was achieved by placing scan lines across the midventricular short axis (SA) and long axis (LA) at the end of systole (FIG. 1D) and diastole (FIG. 1E). […] EF was then calculated according to the equation: EF=(EDV-ESV)/EDV*100. Heart rate (HR) was measured in beats per minute. Cardiac output (CO) was calculated according to the equation: CO=(EDV-ESV)*HR. A minimum of five sequential pairs of systolic and diastolic cycles were measured and analyzed in 9-12 larvae for each treatment.

[5] = tested on: zebrafish accordion mutant (acc) larvae heart; assay: In-vivo heart contractility measurements in zebrafish acc mutant larvae; parameters: species or system zebrafish (Danio rerio); settings: 1 nM, 90 minutes
Experimental: Ouabain, bufalin, digoxin, acetylcholine, carbachol, […] (pp2) and U0126 (1,4-diamino-2,3-dicyano-1,4-bis(2-aminophenylthio)butadiene) were purchased from Sigma-Aldrich Inc., Israel. The compounds were dissolved in egg water (0.3 g Instant Ocean Salt in distilled water) to a final selected concentration, as specified in the following examples. The larvae in 20 μL of E3 medium were transferred to the egg water solution containing one or two of the above specified drugs of choice, and incubated for 60-90 minutes at 28° C.
as §1
Physiological parameters of cardiovascular performance, as indicated hereinbelow, were evaluated in the zebrafish larvae. […] Sequential still frames were analyzed to capture ventricular end-systole and end-diastole images. […] The Ejection Fraction (EF) was determined by an independent estimate of ventricular volume. […] EF was then calculated according to the equation: EF=(EDV-ESV)/EDV*100. Heart rate (HR) was measured in beats per minute. Cardiac output (CO) was calculated according to the equation: CO=(EDV-ESV)*HR. A minimum of five sequential pairs of systolic and diastolic cycles were measured and analyzed in 9-12 larvae for each treatment.

[6] = in vivo; cited from earlier work
[7] = wt, ERK inhibitor experiment, 0.1 nM Oua, 10 nM PD98059, 20 minutes, 0.5 Hz

C=CCc1ccc(O)c(-c2ccc(O)c(CC=C)c2)c1 [Honokiol, 2-(4-hydroxy-3-prop-2-enylphenyl)-4-prop-2-enylphenol]
Akt [1]: ✓

CCCCCCCCCCCCCCCCOP(=O)([O-])OCC[N+](C)(C)C [Miltefosine, hexadecyl 2-(trimethylazaniumyl)ethyl phosphate]
Akt [1]: ✓

COc1cccc(-c2cc(=O)c3ccccc3o2)c1N [PD98059, 2′-amino-3′-methoxyflavone]
effect on CS-induced increase in ERK phosphorylation [2]: inhibit the CS-induced increase in ERK phosphorylation
amplitude of cell contraction, inhibitor alone ([3]; 10 nM PD98059): did not affect the amplitude of cell contraction
contractility and relaxation rise time, inhibitor alone ([3]; 10 nM PD98059): increased contractility and relaxation rise time
ouabain-induced increases in all contractility parameters in the presence of the inhibitor ([3]; 10 nM PD98059, 0.1 nM ouabain): completely prevented
Amplitude [3, 7]: 0.13 ± 0.01
Contraction Rate (−dv/dt) [3, 7]: 0.87 ± 0.09
Relaxation Rate (+dv/dt) [3, 7]: 0.78 ± 0.14

CC(C)(C)n1nc(-c2ccc(Cl)cc2)c2c(N)ncnc21 [PP2]
effect of inhibitor alone on heart function / basal contractility ([4]; PP2 50 nM, U0126 1 μM, MK-2206 10 nM for 2 hours): did not affect heart function
effect on CS-induced increase in contractility ([4]; inhibitor 30 minutes (PP2 50 nM; U0126 1 μM), then CS, measured 90 minutes later): completely abolished the CS-induced increase in contractility

Cc1ccccc1CN1C2=NCCN2C(=O)C2=C1CCN(Cc1ccccc1)C2 [TIC10 Analogue, 2,6,7,8,9,10-hexahydro-10-[(2-methylphenyl)methyl]-7-(phenylmethyl)-imidazo[1,2-a]pyrido[4,3-d]pyrimidin-5(3H)-one]
Akt [1]: ✓

Cc1ccccc1CN1C(=O)C2=C(CCN(Cc3ccccc3)C2)N2CCN=C12 [TIC10, 2,4,6,7,8,9-hexahydro-4-[(2-methylphenyl)methyl]-7-(phenylmethyl)-imidazo[1,2-a]pyrido[3,4-e]pyrimidin-5(1H)-one]
Akt [1]: ✓

N#CC(=C(N)Sc1ccccc1N)C(C#N)=C(N)Sc1ccccc1N [U0126, 1,4-diamino-2,3-dicyano-1,4-bis(2-aminophenylthio)butadiene]
effect on CS-induced increase in ERK phosphorylation [2]: inhibit the CS-induced increase in ERK phosphorylation
effect of inhibitor alone on heart function / basal contractility ([4]; zebrafish, in vivo): did not affect basal contractility
effect on CS-induced increase in contractility ([4]; zebrafish, in vivo): prevented the CS-induced increase in contractility

CNC[C@H](O)c1ccc(O)c(O)c1 [adrenalin]
effect on heart contractility and rate ([4]; zebrafish, in vivo): significant increase in heart contractility and rate
effect on heart force of contraction and rate ([4]; zebrafish, in vivo): increase in heart contractility and rate
increase in CO ([4]; zebrafish, in vivo): 18.34±1.97% and 30.48±2.67%

C[C@]12CC[C@H](O)C[C@H]1CC[C@@H]1[C@@H]2CC[C@]2(C)[C@@H](c3ccc(=O)oc3)CC[C@]12O [bufalin, 5-[(3 S,5R,8R,9S,10S,13R,14S,17R)-3,14-dihydroxy-10,13-dimethyl-1,2,3,4,5,6,7,8,9,11,12,15,16,17-tetradecahydrocyclopenta[a]phenanthren-17-yl]pyran-2-one]
effect on force of contraction [4]: increased significantly the force of contraction
effect on heart rate [4]: without affecting heart rate
concentration producing a significant increase in heart contractility ([4]; added to larvae swimming medium): 0.1 nM
effect on heart contractility [5]: no effect on heart contractility

C[N+](C)(C)CCOC(N)=O [carbachol]
reduction in cardiac output (CO) ([4]; 1 μM, 90 minutes, wt larvae): 10.39±2.2%
reduction in cardiac output (CO) ([4]; 10 μM, 90 minutes, wt larvae): 16.92±3%
effect on heart force of contraction and rate ([4]; 1 and 10 μM, 90 minutes, wt larvae): decreased the heart force of contraction and rate

C[C@H]1O[C@@H](O[C@@H]2[C@@H](O)C[C@H](O[C@@H]3[C@@H](O)C[C@@H](O[C@H]4CC[C@@]5(C)[C@H](CC[C@@H]6[C@@H]5C[C@@H](O)[C@]5(C)C(C7=CC(=O)OC7)CC[C@]65O)C4)O[C@@H]3C)O[C@@H]2C)C[C@H](O)[C@H]1O (stereo partly drawn) [digoxin, 4-[(3 S,5R,8R,9S,10S,12R,13 S, 14S)-3-[(2S,4S,5R,6R)-5-[(2S,4S,5R,6R)-5-[(2S,4S,5R,6R)-4,5-dihydroxy-6-methyl-oxan-2-yl]oxy-4-hydroxy-6-methyl-oxan-2-yl]oxy-4-hydroxy-6-methyl-oxan-2-yl]oxy-12,14-dihydroxy-10,13-dimethyl-1,2,3,4,5,6,7,8,9,11,12,15,16,17-tetradecahydrocyclopenta[a]phenanthren-17-yl]-5H-furan-2-one]
effect on force of contraction [4]: increased significantly the force of contraction
effect on heart rate [4]: without affecting heart rate
concentration required for a similar effect, relative to bufalin or ouabain ([4]; vs 0.1 nM bufalin or ouabain): about tenfold
plasma concentration at which significant signs of toxicity are observed [6]: 3 nM
plasma concentration considered beneficial [6]: about 1 nM
effect on heart contractility [5]: no effect on heart contractility
